Experimental data from patent US11667649B2, “Heteroaromatic macrocyclic ether chemotherapeutic agents” (Nuvalent, Inc., priority 2020, dated 2023).

Test system: TPM3-NTRK1-wt IC50 / primary target (e.g. CD74-ROS1-wt) IC50, Ba/F3 cells
Assay: Cell assay TRKA selectivity (TRKA potency divided by primary target potency)
Format: cell-based
Settings: for TPM3-NTRK1-wt/CD74-ROS1-G2032R: TRKA selectivity ratio: TPM3-NTRK1-wt IC50 / CD74-ROS1-G2032R IC50, Ba/F3 cells; for TPM3-NTRK1-wt/CD74-ROS1-wt: TRKA selectivity ratio: TPM3-NTRK1-wt IC50 / CD74-ROS1-wt IC50, Ba/F3 cells; for TPM3-NTRK1-wt/EML4-ALK-L1196M-G1202R: TRKA selectivity ratio: TPM3-NTRK1-wt IC50 / EML4-ALK-L1196M-G1202R IC50, Ba/F3 cells; for TPM3-NTRK1-wt/EML4-ALK-wt: TRKA selectivity ratio: TPM3-NTRK1-wt IC50 / EML4-ALK-wt IC50, Ba/F3 cells
Summary of the method: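 Ratio of TRKA to primary-target cellular IC50 (e.g. TPM3-NTRK1-wt/CD74-ROS1-wt), grouped into bins A >30, B >10, C ≥1, D <1. Each IC50 came from engineered Ba/F3 fusion lines grown without IL-3, dosed for 72 h and read as CellTiter-Glo luminescence, with a four-parameter logistic fit.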

Row | Compound | TPM3-NTRK1-wt/CD74-ROS1-G2032R | TPM3-NTRK1-wt/CD74-ROS1-wt | TPM3-NTRK1-wt/EML4-ALK-L1196M-G1202R | TPM3-NTRK1-wt/EML4-ALK-wt
1 | C[C@H]1Oc2cc(cnc2N)-c2c(C#N)nnn2Cc2cccnc2-c2ccc(F)cc21 [Example 25, (20R)-23-amino-17-fluoro-20-methyl-21-oxa-4,5,6,12,24-pentaazapentacyclo[20.3.1.0^2,^6.0^8,^13.0^14,^19]hexacosa-1(25),2,4,8(13),9,11,14,16,18,22(26),23-undecaene-3-carbonitrile] | A (bin A for very high selectivity, ratio>30-fold) | A (bin A for very high selectivity, ratio>30-fold) | B (bin B for high selectivity, ratio>10-fold) | A (bin A for very high selectivity, ratio>30-fold)
2 | C[C@H]1Oc2cc(cnc2N)-c2c(C#N)nn(C)c2Cc2cc(C(F)F)nn2-c2ccc(F)cc21 [Example 132, (19R)-22-amino-10-(difluoromethyl)-16-fluoro-5,19-dimethyl-20-oxa-4,5,11,12,23-pentaazapentacyclo[19.3.1.0^2,^6.0^8,^12.0^13,^18]pentacosa-1(24),2(6),3,8,10,13,15,17,21(25),22-decaene-3-carbonitrile] | A (bin A for very high selectivity, ratio>30-fold) | A (bin A for very high selectivity, ratio>30-fold) | C (bin C for moderate selectivity, ratio≥1) | A (bin A for very high selectivity, ratio>30-fold)
3 | CCn1ncc2c1-c1cnc(N)c(c1)OC(C)c1cc(F)ccc1-c1ncncc1C2 (centres unmarked) [Example 42, 3-ethyl-17-fluoro-20-methyl-21-oxa-3,4,10,12,24-pentaazapentacyclo[20.3.1.0^2,^6.0^8,^13.0^14,^19]hexacosa-1(25),2(6),4,8(13),9,11,14,16,18,22(26),23-undecaen-23-amine] | A (bin A for very high selectivity, ratio>30-fold) | A (bin A for very high selectivity, ratio>30-fold) | B (bin B for high selectivity, ratio>10-fold) | A (bin A for very high selectivity, ratio>30-fold)
4 | C[C@H]1Oc2cc(cnc2N)-c2c(C#N)cnn2Cc2cn(C)nc2-c2ccc(F)cc21 [Example 9, (19R)-22-amino-16-fluoro-10,19-dimethyl-20-oxa-5,6,10,11,23-pentaazapentacyclo[19.3.1.0^2,^6.0^8,^12.0^13,^18]pentacosa-1(24),2,4,8,11,13,15,17,21(25),22-decaene-3-carbonitrile] | B (bin B for high selectivity, ratio>10-fold) | A (bin A for very high selectivity, ratio>30-fold) | C (bin C for moderate selectivity, ratio≥1) | A (bin A for very high selectivity, ratio>30-fold)
5 | C[C@H]1Oc2cc(cnc2N)-c2c(nnn2CC2CC2)Cc2cc(C(F)F)nn2-c2ccc(F)cc21 [Example 122, (19R)-3-(cyclopropylmethyl)-10-(difluoromethyl)-16-fluoro-19-methyl-20-oxa-3,4,5,11,12,23-hexaazapentacyclo[19.3.1.0^2,^6.0^8,^12.0^13,^18]pentacosa-1(24),2(6),4,8,10,13,15,17,21(25),22-decaen-22-amine] | A (bin A for very high selectivity, ratio>30-fold) | A (bin A for very high selectivity, ratio>30-fold) | C (bin C for moderate selectivity, ratio≥1) | B (bin B for high selectivity, ratio>10-fold)
6 | CCn1ncc2c1-c1cnc(N)c(c1)O[C@H](C)c1cc(F)ccc1-c1ncoc1C2 [Example 77, (19R)-3-ethyl-16-fluoro-19-methyl-9,20-dioxa-3,4,11,23-tetraazapentacyclo[19.3.1.0^2,^6.0^8,^12.0^13,^18]pentacosa-1(24),2(6),4,8(12),10,13,15,17,21(25),22-decaen-22-amine] | A (bin A for very high selectivity, ratio>30-fold) | A (bin A for very high selectivity, ratio>30-fold) | C (bin C for moderate selectivity, ratio≥1) | A (bin A for very high selectivity, ratio>30-fold)
7 | C[C@H]1Oc2cc(cnc2N)-c2c(nnn2CC2CC2)Cc2cn(C)nc2-c2ccc(F)cc21 [Example 29, (19R)-3-(cyclopropylmethyl)-16-fluoro-10,19-dimethyl-20-oxa-3,4,5,10,11,23-hexaazapentacyclo[19.3.1.0^2,^6.0^8,^12.0^13,^18]pentacosa-1(24),2(6),4,8,11,13,15,17,21(25),22-decaen-22-amine] | A (bin A for very high selectivity, ratio>30-fold) | A (bin A for very high selectivity, ratio>30-fold) | A (bin A for very high selectivity, ratio>30-fold) | A (bin A for very high selectivity, ratio>30-fold)
8 | CCn1ncc2c1-c1cnc(N)c(c1)OCc1cc(F)ccc1-c1nccn1C2 [Example 34, 3-ethyl-16-fluoro-20-oxa-3,4,8,11,23-pentaazapentacyclo[19.3.1.0^2,^6.0^8,^12.0^13,^18]pentacosa-1(24),2(6),4,9,11,13,15,17,21(25),22-decaen-22-amine] | A (bin A for very high selectivity, ratio>30-fold) | A (bin A for very high selectivity, ratio>30-fold) | B (bin B for high selectivity, ratio>10-fold) | A (bin A for very high selectivity, ratio>30-fold)
9 | C[C@H]1Oc2cc(cnc2N)-c2c(c(Cl)nn2CC(F)F)Cc2cn(C)nc2-c2ccc(F)cc21 [Example 83, (19R)-5-chloro-3-(2,2-difluoroethyl)-16-fluoro-10,19-dimethyl-20-oxa-3,4,10,11,23-pentaazapentacyclo[19.3.1.0^2,^6.0^8,^12.0^13,^18]pentacosa-1(24),2(6),4,8,11,13,15,17,21(25),22-decaen-22-amine] | A (bin A for very high selectivity, ratio>30-fold) | A (bin A for very high selectivity, ratio>30-fold) | A (bin A for very high selectivity, ratio>30-fold) | A (bin A for very high selectivity, ratio>30-fold)
10 | CCn1ncc2c1-c1cnc(N)c(c1)O[C@H](C)c1cc(F)ccc1-c1onc(C)c1C2 [Example 161, (19R)-3-ethyl-16-fluoro-9,19-dimethyl-11,20-dioxa-3,4,10,23-tetraazapentacyclo[19.3.1.0^2,^6.0^8,^12.0^13,^18]pentacosa-1(24),2(6),4,8(12),9,13,15,17,21(25),22-decaen-22-amine] | C (bin C for moderate selectivity, ratio≥1) | C (bin C for moderate selectivity, ratio≥1) | D (bin D for low selectivity, ratio<1) | C (bin C for moderate selectivity, ratio≥1)
11 | C[C@H]1Oc2cc(cnc2N)-c2c(C#N)ncn2Cc2scnc2-c2ccc(F)cc21 [Example 64, (19R)-22-amino-16-fluoro-19-methyl-20-oxa-9-thia-4,6,11,23-tetraazapentacyclo[19.3.1.0^2,^6.0^8,^12.0^13,^18]pentacosa-1(24),2,4,8(12),10,13(18),14,16,21(25),22-decaene-3-carbonitrile] | A (bin A for very high selectivity, ratio>30-fold) | A (bin A for very high selectivity, ratio>30-fold) | B (bin B for high selectivity, ratio>10-fold) | A (bin A for very high selectivity, ratio>30-fold)
12 | CCn1ncc2c1-c1cnc(N)c(c1)OCc1cc(F)ccc1-n1nccc1C2 [Example 41, 3-ethyl-16-fluoro-20-oxa-3,4,11,12,23-pentaazapentacyclo[19.3.1.0^2,^6.0^8,^12.0^13,^18]pentacosa-1(24),2(6),4,8,10,13,15,17,21(25),22-decaen-22-amine] | A (bin A for very high selectivity, ratio>30-fold) | A (bin A for very high selectivity, ratio>30-fold) | B (bin B for high selectivity, ratio>10-fold) | A (bin A for very high selectivity, ratio>30-fold)
13 | Cc1nn(CC2CC2)c2c1Cc1cc(C(F)F)nn1-c1ccc(F)cc1COc1cc-2cnc1N [Example 136, 3-(cyclopropylmethyl)-10-(difluoromethyl)-16-fluoro-5-methyl-20-oxa-3,4,11,12,23-pentaazapentacyclo[19.3.1.0^2,^6.0^8,^12.0^13,^18]pentacosa-1(24),2(6),4,8,10,13,15,17,21(25),22-decaen-22-amine] | A (bin A for very high selectivity, ratio>30-fold) | A (bin A for very high selectivity, ratio>30-fold) | A (bin A for very high selectivity, ratio>30-fold) | A (bin A for very high selectivity, ratio>30-fold)
14 | Nc1ncc2cc1OCc1cc(F)ccc1-n1nc(C(F)F)cc1Cc1cnn(CC3CC3)c1-2 [Example 138, 3-(cyclopropylmethyl)-10-(difluoromethyl)-16-fluoro-20-oxa-3,4,11,12,23-pentaazapentacyclo[19.3.1.0^2,^6.0^8,^12.0^13,^18]pentacosa-1(24),2(6),4,8,10,13,15,17,21(25),22-decaen-22-amine] | A (bin A for very high selectivity, ratio>30-fold) | A (bin A for very high selectivity, ratio>30-fold) | A (bin A for very high selectivity, ratio>30-fold) | A (bin A for very high selectivity, ratio>30-fold)
